Measurements reported in the supplement of paper PMC11208160.

Assay: recombinant barcode read abundance after kanamycin selection (control-corrected) (log10(CPM+1)); higher = more efficient recombination; sequences stand for … in AGTGCAGAGAAAATCGGCCAGTTTTCTCTGCCTGCAGTCCGCATGCCGT…AGATTTATGCAGCGGACTGCCTTTCTCCCAAAGTGATAAACCGGACAGTATCATGGACCGGTTTTCCCGGTAATCCGTATTTGCAAGGTTGGTTTCACT; site = the 11-nt target
In short: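 IS621 bridge RNA target-binding loops were paired with targets in a pooled library tested in E. coli. After co-electroporation with a donor plasmid, cells were plated in two replicates on chloramphenicol/ampicillin LB agar (control) and on chloramphenicol/ampicillin/kanamycin carrying 0.1 mM IPTG. Barcodes at recombinant junctions were counted as counts per million, averaged and control-corrected to give recombination efficiency. Values are log10(CPM+1).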
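Also: IS621 recombinase and bridge RNA in Escherichia coli cells.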

| Sequence | recombinant barcode read abundance (log10) |
| --- | --- |
| CGTAGGTCTTGGGTTCTAACCTGTTGCCT (site CTTAGCTCTAG) | 0.0284 |
| CGTCCTCCTTGGGTTCTAACCTGTTGCAT (site CCGCCTCCTAT) | 0.00736 |
| CGTCCTCCTTGGGTTCTAACCTGTTGCAT (site CGTCCTCCTAT) | 0.089 |
| CGTCCTGCTTGGGTTCTAACCTGTTGCTT (site CGTCCTGCTAA) | 0.527 |
| CGTCCTGCTTGGGTTCTAACCTGTTGCTT (site TAGGGGACTTT) | 0.0676 |
| CGTCGCACTTGGGTTCTAACCTGTTGCCT (site CATCGCACTAG) | 0.234 |
| CGTCGCACTTGGGTTCTAACCTGTTGCCT (site CCTCGCACTAG) | 0.029 |
| CGTCGCACTTGGGTTCTAACCTGTTGCCT (site CGTCGCACTAG) | 0.0318 |
| CGTCGCACTTGGGTTCTAACCTGTTGCCT (site CTTCGCACTAG) | 0.164 |
| CGTCGTACTTGGGTTCTAACCTGTTGCCT (site CGACGTACTAG) | 0.504 |
| CGTCGTACTTGGGTTCTAACCTGTTGCCT (site CGCCGTACTAG) | 0.0657 |
| CGTCGTACTTGGGTTCTAACCTGTTGCCT (site CGGCGTACTAG) | 0.0235 |
| CGTCGTACTTGGGTTCTAACCTGTTGCCT (site CGTCGTACTAG) | 0.136 |
| CGTCTCCCTTGGGTTCTAACCTGTTGCCT (site CCTCTGCCTAG) | 0.0171 |
| CGTCTCCCTTGGGTTCTAACCTGTTGCCT (site CGTCTCCCTAG) | 0.451 |
| CGTGTAACTTGGGTTCTAACCTGTTGCCT (site CGTATATCTAG) | 0.13 |
| CGTGTAACTTGGGTTCTAACCTGTTGCCT (site CGTGTAACTAG) | 0.332 |
| CGTTCGACTTGGGTTCTAACCTGTTGCAT (site CGTACGACTAT) | 0.131 |
| CGTTCGACTTGGGTTCTAACCTGTTGCAT (site CGTCCGACTAT) | 0.0713 |
| CGTTCGACTTGGGTTCTAACCTGTTGCAT (site CGTGCGACTAT) | 0.174 |
| CGTTCGACTTGGGTTCTAACCTGTTGCAT (site CGTTCGACTAT) | 0.133 |
| CGTTCGACTTGGGTTCTAACCTGTTGCCT (site CGTTCAACTAG) | 0.0692 |

| Sequence | recombinant barcode read abundance (log10) |
| --- | --- |
| CGTTCGACTTGGGTTCTAACCTGTTGCCT (site CGTTCCACTAG) | 0 |
| CGTTCGACTTGGGTTCTAACCTGTTGCCT (site CGTTCGACTAG) | 0.0748 |
| CGTTCGACTTGGGTTCTAACCTGTTGCCT (site CGTTCTACTAG) | 0.0286 |
| CGTTCTCCTTGGGTTCTAACCTGTTGCCT (site AGTTCTCCTAG) | 0.0567 |
| CGTTCTCCTTGGGTTCTAACCTGTTGCCT (site CGTTCTCCTAG) | 0.0201 |
| CGTTCTCCTTGGGTTCTAACCTGTTGCCT (site GGTTCTCCTAG) | 0.0547 |
| CGTTCTCCTTGGGTTCTAACCTGTTGCCT (site TGTTCTCCTAG) | 0.121 |
| CGTTGCCCTTGGGTTCTAACCTGTTGCCT (site CATTGCCCTAG) | 0.19 |
| CGTTGCCCTTGGGTTCTAACCTGTTGCCT (site CCTTGCCCTAG) | 0.0881 |
| CGTTGCCCTTGGGTTCTAACCTGTTGCCT (site CGTTGCCCTAG) | 0.166 |
| CGTTGCCCTTGGGTTCTAACCTGTTGCCT (site CTTTGCCCTAG) | 0.468 |
| CGTTGGTCTTGGGTTCTAACCTGTTGCGA (site CGTTGGTCTTC) | 0.759 |
| CGTTGGTCTTGGGTTCTAACCTGTTGCGA (site TTGCATCCTCT) | 0.0731 |
| CGTTTCCCTTGGGTTCTAACCTGTTGCAG (site CGTTTCCCTAC) | 0.152 |
| CGTTTCCCTTGGGTTCTAACCTGTTGCAG (site CGTTTCCCTCT) | 0.427 |
| CGTTTCCCTTGGGTTCTAACCTGTTGCGT (site CGTTTCCCTAC) | 1.04 |
| CGTTTCCCTTGGGTTCTAACCTGTTGCGT (site CGTTTCCCTCT) | 0.0161 |
| CTAAAACCTTGGGTTCTAACCTGTTGCCT (site ATAAAACCTAG) | 0.0167 |
| CTAAAACCTTGGGTTCTAACCTGTTGCCT (site CTAAAACCTAG) | 1 |
| CTAAAACCTTGGGTTCTAACCTGTTGCCT (site GTAAAACCTAG) | 0.0969 |
| CTAAAACCTTGGGTTCTAACCTGTTGCCT (site TTAAAACCTAG) | 0.218 |
| CTAAAGTCTTGGGTTCTAACCTGTTGCCA (site CTAAAGTCTTG) | 0.399 |

| Sequence | recombinant barcode read abundance (log10) |
| --- | --- |
| CTAAAGTCTTGGGTTCTAACCTGTTGCCA (site GTAAAGTCTTG) | 0.0268 |
| CTAAATACTTGGGTTCTAACCTGTTGCTA (site CTAAATACTAG) | 0.835 |
| CTAAATACTTGGGTTCTAACCTGTTGCTA (site CTAAATACTTA) | 0.126 |
| CTAACCACTTGGGTTCTAACCTGTTGCCA (site CTAACCACTTG) | 0.329 |
| CTAACCACTTGGGTTCTAACCTGTTGCCA (site CTAACTACTAG) | 0.0393 |
| CTAACCTCTTGGGTTCTAACCTGTTGCTC (site CTAACCTCTAA) | 0.0754 |
| CTAACCTCTTGGGTTCTAACCTGTTGCTC (site CTAACCTCTCA) | 0.0593 |
| CTAACCTCTTGGGTTCTAACCTGTTGCTC (site CTAACCTCTGA) | 1.66 |
| CTAACCTCTTGGGTTCTAACCTGTTGCTC (site CTAACCTCTTA) | 0.0437 |
| CTAACCTCTTGGGTTCTAACCTGTTGCTG (site CTAACCTCTAA) | 0.0311 |
| CTAACCTCTTGGGTTCTAACCTGTTGCTG (site CTAACCTCTCA) | 1.49 |
| CTAACCTCTTGGGTTCTAACCTGTTGCTG (site CTAACCTCTGA) | 0.0869 |
| CTAACCTCTTGGGTTCTAACCTGTTGCTG (site CTAACCTCTTA) | 0.0665 |
| CTAACTACTTGGGTTCTAACCTGTTGCCT (site CTAACCACTTG) | 0 |
| CTAACTACTTGGGTTCTAACCTGTTGCCT (site CTAACTACTAG) | 0.26 |
| CTAACTACTTGGGTTCTAACCTGTTGCGT (site CTAACTACTAC) | 0.181 |
| CTAACTACTTGGGTTCTAACCTGTTGCGT (site GAGGTGCCTCA) | 0.0974 |
| CTAAGAACTTGGGTTCTAACCTGTTGCTT (site CTAAGAACTAA) | 0.254 |
| CTAAGAACTTGGGTTCTAACCTGTTGCTT (site CTAAGAACTAC) | 0.509 |
| CTAAGAACTTGGGTTCTAACCTGTTGCTT (site CTAAGAACTAG) | 0.135 |
| CTAAGAACTTGGGTTCTAACCTGTTGCTT (site CTAAGAACTAT) | 0.086 |
| CTAAGAGCTTGGGTTCTAACCTGTTGCAG (site CTAAGAGCTCG) | 0.123 |
